Source: US20110245105A1, “Methods and Kits for Direct Detection and Susceptibility Profiling of Beta-Lactam Resistant Bacteria” (YISSUM RESEARCH DEVELOPMENT COMPANY OF THE HEBREW …, priority 2008, published 2011)

Assays:
Assay type in all cases: cell-based
K. pneumoniae [1] = experiment: conventional lab procedures [CLP], resistance of bacterial isolates; conditions: profile r19 of Table 2
Description: (§1) The same specimens were examined using conventional lab procedures [CLP] that determined the identity of the bacterial isolates and their resistance to the above beta-lactams.

Morg. morganii [2] = experiment: as above; conditions: 1 sample (r23)
Description: as §1

K. pneumoniae [3] = experiment: ART strip test on urine sample pellets
Experimental: (§2) Filter paper (Whatman no. 3) strips impregnated with 50 mM potassium iodide and 10 mM iodine in 0.75% aqueous starch solution were divided into 6 test areas. Appropriate antibiotic substrates were prepared at a final concentration of 20 mg/mL. Each test area was impregnated with 30 μL of the appropriate solution. The strips were then dried in a lyophilizer and stored with a desiccant at 4° C.
(§3) One mL urine samples were spun 2 minutes at 3000 RPM in room temperature. Supernatants were removed and aliquots of the resulting pellets were streaked on standard slides.
(§4) The product of the enzymatic degradation of a beta-lactam antibiotic removes the iodine from the ART strip and causes local decolorization in that strip. Typically, a detection kit consists of two slides, as illustrated in FIG. 2. The bottom slide is streaked with the sample to be tested. The top slide (lid) carries the ART strip which is activated when each test area on the strip receives 25 μL of the activator solution consisting of 40 mg gelatin in 100 mL phosphate buffer pH 6.5. The test starts when the top slide carrying the freshly activated ART strip contacts the bottom slide carrying the sample. It may be carried out at ambient temperatures but will be accelerated by warming-up to 41° C. […] Result is confirmed if no decolorization took place in the absence of the bacteria (the background of that test area) or in the absence of the antibiotic (as in Test Area 2 in FIG. 1).
(§5) One mL urine sample pellets were collected as described in Example 1 and each streaked on a slide. The strip of the invention (termed ART for Antibiotics Resistance Test) was used to test for beta-lactamase and its ability to degrade Ceftazidime [Caz], Ceftriaxone [Cro], Cefuroxime [Cxm] and Ampicillin [Amp]. The strip, containing iodine and starch and divided to areas containing each of the abovementioned antibiotics, and attached to a plain slide, was activated as shown above, and placed on the streaked slide. After 5-15 minutes at 33° C.-38° C. the slide was scanned and recorded.

Str. agalactiae = experiment: ART strip test on urine sample pellets; conditions: 3 samples (r34)
Experimental: as §2, §3, §4, §5

E. faecalis = experiment: ART strip test on urine sample pellets; conditions: 4 samples (r27)
Experimental: as §2, §3, §4, §5

Morg. morganii [4] = experiment: ART strip test on urine sample pellets
Experimental: as §2, §3, §4, §5

Prot. mirabilis = experiment: ART strip test on urine sample pellets
Experimental: as §2, §3, §4, §5

Staphylococcus sp. = experiment: ART strip test on urine sample pellets
Experimental: as §2, §3, §4, §5

Citr. koseri = experiment: ART strip test on urine sample pellets; conditions: 2 samples (r25)
Experimental: as §2, §3, §4, §5

Acinetobacter sp. = experiment: ART strip test on urine sample pellets; conditions: 1 sample (r29)
Experimental: as §2, §3, §4, §5

K. oxytoca = experiment: ART strip test on urine sample pellets
Experimental: as §2, §3, §4, §5

E. coli [5] = experiment: ART strip (Antibiotics Resistance Test), iodometric detection of beta-lactam hydrolysis by un-cultured urine sample pellets
Experimental: as §2, §3, §4, §5

K. pneumoniae [6] = experiment: modular antibiotic resistance detection kit on urine sample pellets
Experimental: (§6) A modular antibiotic resistance detection kit offers more flexibility in testing different resistance profiles. In the modular detection kit exemplified here, the ART strip is replaced by filter paper segments glued to a slide, each segment impregnated with a single antibiotic.
(§7) Specifically, pathogen samples were tested using filter papers impregnated with the following beta-lactam antibiotics: ampicillin [Amp], augmentin (a combination of amoxicillin and clavulanic acid) [AMC], clavulanic acid (Reduced Resistance test) [RR], ceftazidime [Caz] and either imipenem or meropenem [CPM]. The impregnation details of the fragments were as in the previous Examples.
(§8) Filter paper (Whatman no. 3] strips impregnated with Assay Reagent solution were used as “indicator strips”. An indicator strip was attached to the plain top slide as shown in FIG. 2. Aliquots of the pellets of the urine samples tested were placed on each of the segments. The test was started by placing the activated indicator-strip-slide, on the modular antibiotic slide. The scan results obtained after 5-10 min at 38° C. are illustrated schematically in FIG. 2 where all segments, except for the negative (no antibiotic) control, show decolorization indicating resistance to each antibiotic in that array.
(§9) Samples resistant to ceftazidime but affected by clavulanic acid were assumed to contain extended spectrum beta lactamases (ESBLs). The ‘Confirmed’ detections column summarizes the number of CLP-validated results out of the total findings recorded.

Proteus mirabilis = experiment: as above
Experimental: as §6, §7, §8, §9

Citrobacter freundii = experiment: as above; conditions: profile r23, ESBL Pos; also: key: R = resistant; S = sensitive
Experimental: as §6, §7, §8, §9

E. coli [7] = experiment: as above
Experimental: as §6, §7, §8, §9

E. coli [8] = experiment: conventional lab procedures [CLP], resistance of bacterial isolates; conditions: profile r9 of Table 2; also: key: R = resistant; S = sensitive
Description: as §1

[9] = tested on: carbapenem-resistant Enterobacteriaceae; experiment: modular kit for detection of CRE in urine sample; conditions: CRE-containing urine sample pellets; 12 minutes at 38° C.
Experimental: The kit constructed as a twin-slide [as illustrated by FIG. 1] carries an “OCTET” strip impregnated [as in Example 1] with an array of eight beta-lactam antibiotics and 1 non-beta-lactam control [S].
To illustrate the life-saving potential of the proposed technology which eliminates delays in diagnosis of carbapenem-resistant members of the Enterobacteriaceae family (CRE), a CRE sample was analyzed using the invention's modular kit, containing ampicillin, ceftazidime, augmentin, cefotaxime, imipenem, cefuroxime, meropenem and ceftriaxone as beta-lactamase substrates and a non-beta-lactam antibiotic, served as a negative control.
Filter paper segments were glued to a slide, each segment impregnated with a single antibiotic of the abovementioned antibiotics and streaked with carbapenem-resistant Enterobacteriaceae-containing urine sample pellets, prepared as described in Examples 1 to 3. The slide was contacted with indicator strips attached to a slide.

[10] = K. pneumoniae (5 samples), profile r17, ESBL Pos
[11] = K. pneumoniae, profile r18, ESBL Pos
[12] = K. pneumoniae, profile r20, ESBL Pos
[13] = K. pneumoniae, profile r21, ESBL Neg
[14] = Proteus mirabilis (3 samples), profile r25, ESBL Pos
[15] = Proteus mirabilis, profile r26, ESBL Pos
[16] = Proteus mirabilis, profile r27, ESBL Neg
[17] = E. coli (16 samples), profile r6, ESBL Neg, 5-10 min at 38° C.

With `CC(C)(O/N=C(\C(=O)N[C@@H]1C(=O)N2C(C(=O)[O-])=C(C[n+]3ccccc3)CS[C@H]12)c1csc(N)n1)C(=O)O` [Caz, Ceftazidime] the “CLP result differing from kit (in brackets)” value (K. pneumoniae [1]) was “S”, the “CLP result differing from ART (in brackets)” value (Morg. morganii [2]) was “R” and the “resistance profile predicted by ART” value (K. pneumoniae [3]; 1 sample (r12)) was “S”. For the same compound, the “resistance profile predicted by ART” value (K. pneumoniae [3]; 8 samples (r11)) was “S”, the “resistance profile predicted by ART” value (K. pneumoniae [3]; 11 samples (r10), MDR) was “R” and the “resistance profile predicted by ART” value (Str. agalactiae) was “S[nd]”. The “resistance profile predicted by ART” value (E. faecalis) was “S[nd]”, the “resistance profile predicted by ART” value (Morg. morganii [4]; 1 sample (r22)) was “S” and the “resistance profile predicted by ART” value (Morg. morganii [4]; 1 sample (r23)) was “S”. The “resistance profile predicted by ART” value (Prot. mirabilis; 1 sample (r18)) was “S”, the “resistance profile predicted by ART” value (Prot. mirabilis; 1 sample (r19)) was “S” and the “resistance profile predicted by ART” value (Prot. mirabilis; 1 sample (r20)) was “R”. The “resistance profile predicted by ART” value (Prot. mirabilis; 6 samples (r17)) was “S”, the “resistance profile predicted by ART” value (Staphylococcus sp.; 1 sample (r31)) was “S” and the “resistance profile predicted by ART” value (Staphylococcus sp.; 1 sample (r32)) was “S”. The “resistance profile predicted by ART” value (Citr. koseri) was “S”, the “resistance profile predicted by ART” value (Acinetobacter sp.) was “S” and the “resistance profile predicted by ART” value (K. oxytoca; 1 sample (r15)) was “S”. The “resistance profile predicted by ART” value (K. oxytoca; 3 samples (r14)) was “S”, the “resistance profile predicted by ART” value (E. coli [5]; 3 samples (r8), MDR) was “R” and the “resistance profile predicted by ART” value (E. coli [5]; 12 samples (r7)) was “S”. The “resistance profile predicted by ART” value (E. coli [5]; 28 samples (r6), 5-15 minutes at 33° C.-38° C.) was “S”, the “resistance found with modular kit” value (K. pneumoniae [6]; [10]) was “R” and the “resistance found with modular kit” value (K. pneumoniae [6]; [11]) was “R”. For the same compound, the “resistance found with modular kit” value (K. pneumoniae [6]; K. pneumoniae, profile r19) was “R”, the “resistance found with modular kit” value (K. pneumoniae [6]; [12]) was “R” and the “resistance found with modular kit” value (K. pneumoniae [6]; [13]) was “S”. For the same compound, the “resistance found with modular kit” value (Proteus mirabilis; [14]) was “R”, the “resistance found with modular kit” value (Proteus mirabilis; [15]) was “R” and the “resistance found with modular kit” value (Proteus mirabilis; [16]) was “S”. For the same compound, the “resistance found with modular kit” value (Citrobacter freundii) was “R”, the “resistance found with modular kit” value (E. coli [7]; [17]) was “S” and the “resistance found with modular kit” value (E. coli [7]; E. coli, profile r9, ESBL Neg) was “S”. The “resistance found with modular kit” value (E. coli [7]; E. coli, profile r10, ESBL Neg) was “S”, the “resistance found with modular kit” value (E. coli [7]; E. coli, profile r11, ESBL Neg) was “S” and the “resistance found with modular kit” value (E. coli [7]; E. coli, profile r12, ESBL Neg) was “S”. For the same compound, the “resistance found with modular kit” value (E. coli [7]; E. coli, profile r14, ESBL Pos) was “R” and the “resistance found with modular kit” value (E. coli [7]; E. coli, profile r15, ESBL Pos) was “R”.
For augmentin [AMC], the “CLP result differing from kit (in brackets)” value (E. coli [8]) was “S”, the “resistance found with modular kit” value (K. pneumoniae [6]; [10]) was “I” and the “resistance found with modular kit” value (K. pneumoniae [6]; [11]) was “R”. For the same compound, the “resistance found with modular kit” value (K. pneumoniae [6]; K. pneumoniae, profile r19) was “R”, the “resistance found with modular kit” value (K. pneumoniae [6]; [12]) was “R” and the “resistance found with modular kit” value (K. pneumoniae [6]; [13]) was “S”. The “resistance found with modular kit” value (Proteus mirabilis; [14]) was “I”, the “resistance found with modular kit” value (Proteus mirabilis; [15]) was “S” and the “resistance found with modular kit” value (Proteus mirabilis; [16]) was “R”. For the same compound, the “resistance found with modular kit” value (Citrobacter freundii) was “R”, the “resistance found with modular kit” value (E. coli [7]; [17]) was “S” and the “resistance found with modular kit” value (E. coli [7]; E. coli, profile r7) was “S”. For the same compound, the “resistance found with modular kit” value (E. coli [7]; E. coli, profile r8) was “S”, the “resistance found with modular kit” value (E. coli [7]; E. coli, profile r9, ESBL Neg) was “R” and the “resistance found with modular kit” value (E. coli [7]; E. coli, profile r10, ESBL Neg) was “I”. For the same compound, the “resistance found with modular kit” value (E. coli [7]; E. coli, profile r11, ESBL Neg) was “I”, the “resistance found with modular kit” value (E. coli [7]; E. coli, profile r12, ESBL Neg) was “I” and the “resistance found with modular kit” value (E. coli [7]; E. coli, profile r13) was “R”. For the same compound, the “resistance found with modular kit” value (E. coli [7]; E. coli, profile r14, ESBL Pos) was “R”, the “resistance found with modular kit” value (E. coli [7]; E. coli, profile r15, ESBL Pos) was “R” and the “hydrolysis by the tested specimen (decolorization)” value [9] was “hydrolysis”.
